Here are results for 21 compounds from ChEMBL document CHEMBL2331397, “Indoleamine 2,3-dioxygenase inhibitory activity of derivatives of marine alkaloid tsitsikammamine A” (Bioorg Med Chem Lett, 2013).

A short description of data set [1]: Cytotoxicity against mouse P815B cells assessed as cell viability at 10 uM by MTT assay relative to control. The data set is classed as cell-based. To be noted: read-out: Activity.
Data set [2] deals with Indoleamine 2,3-dioxygenase 1 (Mus musculus) (UniProt P28776). Description: Inhibition of mouse IDO1 overexpressed in mouse P815B cells using L-Trp as substrate assessed as kynurenine level at 10 uM by HPLC analysis relative to control. The data set is classed as cell-based.
Chain of Indoleamine 2,3-dioxygenase 1 (Mus musculus) (P28776 whole entry, looked up): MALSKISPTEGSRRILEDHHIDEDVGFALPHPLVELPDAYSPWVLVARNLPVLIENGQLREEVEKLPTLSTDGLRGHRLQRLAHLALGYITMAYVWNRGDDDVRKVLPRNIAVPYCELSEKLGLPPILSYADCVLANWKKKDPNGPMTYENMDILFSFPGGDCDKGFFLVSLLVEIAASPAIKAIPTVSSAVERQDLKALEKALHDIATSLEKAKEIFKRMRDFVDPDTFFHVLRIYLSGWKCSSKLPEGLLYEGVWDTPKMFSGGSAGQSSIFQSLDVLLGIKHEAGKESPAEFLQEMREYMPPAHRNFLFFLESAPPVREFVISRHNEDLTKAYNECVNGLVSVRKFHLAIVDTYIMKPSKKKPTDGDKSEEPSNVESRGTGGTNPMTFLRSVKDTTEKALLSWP
Data set [3] deals with Tryptophan 2,3-dioxygenase (Mus musculus) (UniProt P48776). Description: Inhibition of mouse TDO overexpressed in mouse P815B cells using L-Trp as substrate assessed as kynurenine level at 10 uM by HPLC analysis relative to control. The class given is cell-based.
Chain of Tryptophan 2,3-dioxygenase (Mus musculus) (P48776 whole entry): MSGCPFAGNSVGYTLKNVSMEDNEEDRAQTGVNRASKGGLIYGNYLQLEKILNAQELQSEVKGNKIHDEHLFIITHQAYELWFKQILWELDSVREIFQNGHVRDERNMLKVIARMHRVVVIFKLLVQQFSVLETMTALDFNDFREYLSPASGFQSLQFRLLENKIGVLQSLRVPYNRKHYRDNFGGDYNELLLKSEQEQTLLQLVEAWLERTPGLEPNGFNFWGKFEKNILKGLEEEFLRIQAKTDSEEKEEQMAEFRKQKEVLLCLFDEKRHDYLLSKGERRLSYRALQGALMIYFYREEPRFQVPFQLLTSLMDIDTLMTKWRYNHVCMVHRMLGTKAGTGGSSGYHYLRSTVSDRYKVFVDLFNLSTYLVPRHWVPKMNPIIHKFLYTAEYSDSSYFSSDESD
The target of data set [4] is T1, Indoleamine 2,3-dioxygenase 1 (Homo sapiens, UniProt P14902). As to the kind of experiment: Inhibition of human recombinant IDO1 using L-Trp as substrate assessed as kynurenine level after 30 mins.
Data set [5] concerns the target Indoleamine 2,3-dioxygenase 1 (Mus musculus) (UniProt P28776). As to the kind of experiment: Inhibition of mouse IDO1 overexpressed in mouse P815B cells using L-Trp as substrate assessed as kynurenine level at 22 uM by HPLC analysis relative to control. The class given is cell-based.
In data set [6] the target is Tryptophan 2,3-dioxygenase (Mus musculus) (UniProt P48776). To be noted: P815B, 22 uM.
Description: Inhibition of mouse TDO overexpressed in mouse P815B cells using L-Trp as substrate assessed as kynurenine level at 22 uM by HPLC analysis relative to control
The target of data set [7] is T1, Indoleamine 2,3-dioxygenase 1. As to the kind of experiment: Uncompetitive inhibition of hexahistidyl-tagged human IDO1.
Target sequence in this assay (P14902 whole entry): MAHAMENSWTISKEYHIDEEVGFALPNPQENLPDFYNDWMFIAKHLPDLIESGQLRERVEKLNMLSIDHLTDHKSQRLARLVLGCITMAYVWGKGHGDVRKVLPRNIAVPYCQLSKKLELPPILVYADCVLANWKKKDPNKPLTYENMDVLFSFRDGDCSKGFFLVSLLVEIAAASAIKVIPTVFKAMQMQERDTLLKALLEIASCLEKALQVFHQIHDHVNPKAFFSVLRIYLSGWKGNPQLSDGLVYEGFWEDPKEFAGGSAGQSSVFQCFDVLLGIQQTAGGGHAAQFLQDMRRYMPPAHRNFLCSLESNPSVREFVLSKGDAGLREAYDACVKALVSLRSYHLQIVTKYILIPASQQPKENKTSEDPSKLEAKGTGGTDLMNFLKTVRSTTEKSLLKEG

Active and inactive are the calls of the source. The rule behind the calls is not given here.

In general, inhibition refers to the change of the read-out against control, counted positive when it falls. Turning to `O=C1c2[nH]ccc2C(=O)c2c(-c3ccc(O)cc3)c[nH]c21`, the viability at 10 µM in data set [1] was > 90%. The inhibition result in data set [2] and in data set [3] was “inactive” throughout. Moreover, the inhibition in data set [4] is < 50%.
The IC50 is the point on the concentration scale where inhibition reaches its midpoint. As for `COc1ccc(C(O)CNC2=CC(=O)c3c(CCNC(=O)OC(C)(C)C)cn(S(=O)(=O)c4ccc(C)cc4)c3C2=O)cc1` (configuration not stated), the viability at 10 µM in data set [1] was > 90%. For the same compound, the inhibition in data set [2] was 31.3%. Further, the inhibition result in data set [3] was “inactive”. Besides, the IC50 in data set [4] was 26.9 µM.
As to `Cn1cc(C[C@H](N)C(=O)O)c2ccccc21` [(L)-1-METHYLTRYPTOPHAN], the viability at 10 µM in data set [1] is > 90%. Further, the inhibition in data set [5] is 14.5%. In data set [6], the inhibition entry was “inactive”.
`COc1ccc(-c2c[nH]c3c2C(=O)c2c(c(CCN)cn2S(=O)(=O)c2ccc(C)cc2)C3=O)cc1`: the viability at 10 µM in data set [1] is > 90%. The inhibition in data set [2] was 26%. The inhibition result in data set [3] is “inactive”. Moreover, the IC50 in data set [4] turned out to be 11.9 µM.
Take `COc1ccc(C2CNC3=C2C(=O)c2ccn(S(=O)(=O)c4ccc(C)cc4)c2C3=O)cc1` (configuration not stated): the viability at 10 µM in data set [1] is > 90%. Moreover, the inhibition came to 40.2% in data set [2] and 2.5% in data set [3]. Also, the IC50 in data set [4] turned out to be 1.8 µM.
With `COc1ccc(C2CNC3=C2C(=O)c2c(CCN)cn(S(=O)(=O)c4ccc(C)cc4)c2C3=O)cc1` (configuration not stated), the viability at 10 µM in data set [1] was determined as 83%. Also, the inhibition in data set [2] amounted to 26.1%. For the same compound, in data set [3], the inhibition result was “inactive”. Besides, the IC50 in data set [4] was determined as 2.8 µM.
As to `COc1ccc(-c2c[nH]c3c2C(=O)c2[nH]ccc2C3=O)cc1`, in data set [1], the viability at 10 µM is < 50%. Also, in data set [4], the IC50 stood at 22.4 µM.
Usually Ki stands for a measure of affinity in units of concentration, obtained from inhibition or displacement. The low end stands for higher affinity, the high end for lower affinity. Consider `CO[C@@]12[C@H](COC(N)=O)C3=C(C(=O)C(C)=C(N)C3=O)N1C[C@@H]1N[C@@H]12` [MITOMYCIN], for which the affinity in data set [7], expressed as Ki, was 25 µM.
Regarding `COc1ccc(-c2c[nH]c3c2C2=NCCc4c[nH]c(c42)C3=O)cc1`, the viability at 10 µM in data set [1] is > 90%. For the same compound, the inhibition in data set [2] was 19.4%. Besides, in data set [3], the inhibition result was “inactive”. Besides, in data set [4], the IC50 worked out at 0.9 µM.
Consider `COc1ccc(C(O)CNC2=CC(=O)c3ccn(S(=O)(=O)c4ccc(C)cc4)c3C2=O)cc1` (configuration not stated), for which the viability at 10 µM in data set [1] was > 90%. For the same compound, in data set [2], the inhibition was 24.3%. For the same compound, the inhibition entry in data set [3] was “inactive”. Further, in data set [4], the IC50 stood at 2.5 µM.
As for `COc1ccc(C2CNC3=C2C(=O)c2c(ccn2S(=O)(=O)c2ccc(C)cc2)C3=O)cc1` (configuration not stated), the viability at 10 µM in data set [1] was > 90%. The results for the inhibition in data set [2] and in data set [3] were 54.2% and 3.2%, respectively. The IC50 in data set [4] was determined as 5.6 µM.
Regarding `COc1ccc(-c2c[nH]c3c2C(=O)c2cc[nH]c2C3=O)cc1`, the viability at 10 µM in data set [1] was < 50%. Also, in data set [4], the IC50 stood at 12.6 µM.
With `COc1ccc(-c2c[nH]c3c2C(=O)c2ccn(S(=O)(=O)c4ccc(C)cc4)c2C3=O)cc1`, in data set [1], the viability at 10 µM is > 90%. For the same compound, the inhibition in data set [2] is 19.6%; in data set [4] it was < 50%. Further, the inhibition entry in data set [3] was “inactive”.
Consider `COc1ccc(-c2c[nH]c3c2C(=O)c2c(CCN)cn(S(=O)(=O)c4ccc(C)cc4)c2C3=O)cc1`, for which, in data set [1], the viability at 10 µM amounted to 80%. Besides, the inhibition in data set [2] worked out at 15.6%. Further, the inhibition entry in data set [3] was “inactive”. Also, the IC50 in data set [4] turned out to be 5.4 µM.
Consider `COc1ccc(-c2c[nH]c3c2C2=NCCc4cn(S(=O)(=O)c5ccc(C)cc5)c(c42)C3=O)cc1`, for which, in data set [1], the viability at 10 µM was > 90%. Moreover, the values for the inhibition in data set [2] and in data set [3] were 32% and 3.1%, respectively. Also, the IC50 in data set [4] was 2.2 µM.
Consider `COc1ccc(-c2c[nH]c3c2C(=O)c2c4c(cn2S(=O)(=O)c2ccc(C)cc2)CCN=C34)cc1`, for which the viability at 10 µM in data set [1] is < 50%. Also, in data set [4], the IC50 came out at 4.2 µM.
Consider `O=C1c2[nH]cc3c2C(=NCC3)c2[nH]cc(-c3ccc(O)cc3)c21`, for which the viability at 10 µM in data set [1] was > 90%. Further, the inhibition in data set [2] worked out at 5.3%. Further, in data set [3], the inhibition result was “inactive”. Moreover, the IC50 in data set [4] stood at 7 µM.
`COc1ccc(C(O)CNC2=CC(=O)c3c(c(CCNC(=O)OC(C)(C)C)cn3S(=O)(=O)c3ccc(C)cc3)C2=O)cc1` (configuration not stated): the viability at 10 µM in data set [1] was > 90%. For the same compound, in data set [2], the inhibition came to 17.4%. Besides, the inhibition entry in data set [3] is “inactive”. Moreover, the IC50 in data set [4] turned out to be 10.1 µM.
As to `COc1ccc(C2CNC3=C2C(=O)c2c(c(CCN)cn2S(=O)(=O)c2ccc(C)cc2)C3=O)cc1` (configuration not stated), in data set [1], the viability at 10 µM was > 90%. The inhibition in data set [2] stood at 40.2%; in data set [3] it was 4.7%. Besides, the IC50 in data set [4] worked out at 5.6 µM.
For `COc1ccc(C(O)CNC2=CC(=O)c3c(ccn3S(=O)(=O)c3ccc(C)cc3)C2=O)cc1` (configuration not stated), in that order: > 90%, 37.3%, 1.1% and 8.8 µM.
For the compound `COc1ccc(-c2c[nH]c3c2C(=O)c2[nH]cc4c2C3=NCC4)cc1`, the viability at 10 µM in data set [1] is < 50%. Besides, in data set [4], the IC50 was 7.1 µM.
